Measurements taken from patent US5912259A, “Method for treating and preventing neurodegenerative disorders by administering a thiazolidinone” (Warner-Lambert Company, priority 1998, dated 1999).

Assays:
NMDA-induced injury = test system: NMDA-induced injury
Protocol: Intrastriatal injections of NMDA (15 nmol/0.5 μL) were performed in male and female Sprague-Dawley rat pups (Charles River Laboratory, Portage, Mich.) on Postnatal Day (PND) 7. The animals were anesthetized with ether, and the calvarium was exposed by a midline incision through the skin. The rat pups were placed in a plaster of paris mold that was secured to a small animal stereotaxic instrument (Kopf Instruments). NMDA (Sigma) was dissolved in 0.1 M phosphate-buffered saline (PBS) adjusted to pH 7.4 with 1 N NaOH. Injections of NMDA ([…]) were placed in the middle of the right posterior corpus striatum (coordinates relative to Bregma; AP -2.0 mm, ML 2.5 mm, at a depth of 4.0 mm from the dura) with a 26-gauge Hamilton syringe. The syringe was left in place for 2 minutes following the injections to limit leakage. Temperature of the animals was kept constant after surgery in a thermostatically controlled environment (HovaBator chick incubator; BFG Corp., Savannah, Ga.) set at 35° C. to 36° C. for 1 hour after the last drug or vehicle injection. Drug solutions were prepared in PBS and injected intraperitoneally (0.05 mL volume) 15 minutes, and 2.25 hours after intrastriatal injection of NMDA. Control animals received equal volumes of PBS.
After surgery, all animals were returned to the mothers for 5 days, and decapitated on PND 12. The brains were removed, the cerebral hemispheres were separated, and wet weights of each hemisphere were determined individually. Differences of the hemispheric weights were compared for each animal using the formula: 100×(C-I/C)=percent damage, a value that indicates the severity of damage of the injected (I) cerebral hemisphere relative to that of the uninjected contralateral (C) hemisphere. Percent protection is used to indicate the relative protection of the neuroprotective compound compared to the control and was calculated as: 100×[1-(% damagetreated /% damagecontrol)]. Data were expressed as mean percent damage±S.E.M. in all groups. Independent t-tests were used for statistical comparisons.

cyclooxygenase = conditions: described in U.S. Pat. No. 5,143,928; cited from earlier work
5-lipoxygenase = conditions: described in U.S. Pat. No. 5,143,928; cited from earlier work
[1] = test system: canine leptomeningeal smooth muscle cells; experiment: Amyloid β-peptide-induced cytotoxicity in canine leptomeningeal smooth muscle cells; assay type: cell-based, dog
Description: Canine smooth muscle cells were isolated from freshly obtained old dog meninges. […] Old dogs have an angiopathy resembling the human condition. Smooth muscle cells are the site of cerebral vessel myopathy occurring in the Dutch form of Alzheimer's disease. The compromise of these cells ultimately leads to a cerebrovascular accident and the death of some humans.
Cells from the meninges were dissociated and kept in culture in 10% fetal calf serum and Dulbecco's minimal essential media with antibiotics for about 1 week on tissue culture plates before use in biochemical studies or transferal to uncoated microscope slides for morphological studies. These smooth muscle cells represent brain blood vessel cells and they can be passaged several times. For inducing cytotoxicity, the cells were treated, in serum-free media, with 10 to 20 μM of amyloid β-peptide that was 42 amino acids long. This peptide corresponds to the human β-peptide sequence. The peptide was dissolved in water immediately before use. This small amount of protein is believed to approximate the concentration of protein observed in postmortem samples in the brains of people who died with Alzheimer's dementia.
Percentages were determined by counting normal and apoptotic nuclei in three fields with five independent measures in a fluorescence microscope.

COc1ccc2c(c1)c(CC(=O)O)c(C)n2C(=O)c1ccc(Cl)cc1 [indomethacin, reference compound]
protection compared with the thiazolidinone (NMDA-induced injury; 2×30 mg/kg, versus thiazolidinone 2×30 mg/kg): comparable

CC(C)(C)c1cc(C=C2SC(=N)NC2=O)cc(C(C)(C)C)c1O [5-[[3,5-bis-(1,1-dimethylethyl)-4-hydroxyphenyl]methylene]-2-imino-4-thiazolidinone]
inhibition of cyclooxygenase activity (cyclooxygenase): inhibits the activities of both cyclooxygenase and 5-lipoxygenase | inhibition of 5-lipoxygenase activity (5-lipoxygenase): inhibits the activities of both cyclooxygenase and 5-lipoxygenase

human protein sequence: amyloid β-peptide that was 42 amino acids long; corresponds to the human β-peptide sequence [reference compound]
earliest statistically significant cytotoxicity ([1]; 10 to 20 μM amyloid β-peptide): 24 h | smooth muscle cells killed apoptotically ([1]; 10 to 20 μM, 1-week period, serum-free media, Hoechst 33258, 10080 min): 70% to 85

CN[C@H](CC(=O)O)C(=O)O [NMDA, N-methyl-D-aspartate, reference compound]
reduction in wet weight of the ipsilateral cerebral hemisphere (NMDA-induced injury; NMDA 15 nmol/0.5 μL injected into posterior striatum, i.p. PBS, N=10): 20.6±1.8%
